The source of these data is patent US4925650A, “Technetium -99m complex for examining the renal function” (Mallinckrodt, Inc., priority 1988, dated 1990).

The conditions of data set [1]: cited from earlier work; for mode of elimination / renal secretion (in words): in vivo.
Data set [2] is described as follows: Liver accumulation in a human being after 40 minutes. In kind it is in vivo. Particulars: 0.5 mCi intravenously. The procedure: The liver accumulation is determined after 40 minutes. For the tested Tc99m-LL-isomer it amounts to 2.9%, for Tc99m-MAG3 it amounts to 4.0% of the injected dose.

For the compound `O=C(O)CNC(=O)c1ccccc1[131I]` [iodo-131-Hippuran], the “mode of elimination / renal secretion (in words)” value in data set [1] is “secreted actively tubularly”.

With “Tc99m-diethylene triamine pentaacetic acid [DTPA]”, the clearance in data set [1] (chelate of DTPA) was 100 ml of blood plasma per minute. Besides, in data set [1], the “mode of elimination / renal secretion (in words)” value was “eliminated entirely or substantially entirely by glomerular filtration”.

“Tc-99m-mercaptoacetyltriglycine [Tc99m-MAG3]”: the liver accumulation in data set [2] is on record as 4.0 % of the injected dose. For the same compound, the “mode of elimination / renal secretion (in words)” value in data set [1] was “secreted by the kidneys selectively and approximately equally rapidly as iodo-Hippuran”.
